Data from patent US20250179103A1, “6-OXODECAHYDROPYRROLO[1,2-A][1,5]DIAZOCINE AND 6-OXODECAHYDRO-4H-PYRROLO[2,1-D][1,5]THIAZOCINE DERIVATIVES AS STAT3 AND STAT6 MODULATORS FOR THE TREATMENT OF CANCER AND INFLAMMATORY CONDITIONS” (Recludix Pharma, Inc., priority 2022, published 2025).

What was measured:
[1] = tested on: pY705-STAT3 in Peripheral Blood Mononuclear Cells (PBMC); assay: MSD-pSTAT-PBMC Assay (pSTAT3, IL-6 stimulated); type: cell-based, Human; conditions: Homo sapiens, compound 3 hrs, then 10 ng/mL IL-6 for 10 min
How it was run: (§1)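 Phospho-STAT readout used MSD electrochemiluminescence with total STAT3 or STAT6 capture in lysates of cryopreserved human PBMCs. Cells had 3 h compound exposure before a 10 min cytokine pulse: IL-6 10 ng/mL for pSTAT3, IL-4 1 ng/mL for pSTAT6. IC50 came from background-subtracted, DMSO-normalised signal, with categories A≤100 nM up to D>3 μM.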

[2] = tested on: pY641-STAT6 in Peripheral Blood Mononuclear Cells (PBMC); assay: MSD-pSTAT-PBMC Assay (pSTAT6, IL-4 stimulated); type: cell-based, Human; conditions: Homo sapiens, compound 3 hrs, then 1 ng/mL IL-4 for 10 min
How it was run: as §1

SMILES: CC(=O)N1CC[C@H]2CC[C@@H](C(=O)N(C)C3CCN(S(C)(=O)=O)CC3)N2C(=O)[C@@H](NC(=O)c2cc3cc(C(F)(F)P(=O)(OCOC(=O)C(C)(C)C)OCOC(=O)C(C)(C)C)ccc3s2)C1 [Compound 312, ((((2-(((5S, 8S,10aR)-3-acetyl-8-(methyl(1-(methyl-sulfonyl)piperidin-4-yl)carbamoyl)-6-oxodecahydro-pyrrolo[1,2-a][1,5]diazocin-5-yl)carbamoyl)benzo[b]thiophen-5-yl)difluoro-methyl)phos-phoryl)bis(oxy))bis (methylene) bis(2,2-dimethylpro-panoate)]
- IC50 [1]: > 3000 nM
- IC50 [2]: 100 to 1000 nM

SMILES: CC(=O)N1CC[C@H]2CC[C@@H](C(=O)NC3CCN(S(C)(=O)=O)CC3)N2C(=O)[C@@H](NC(=O)c2cc3cc(C(F)(F)P(=O)(OCOC(=O)C(C)(C)C)OCOC(=O)C(C)(C)C)ccc3s2)C1 [Compound 313, ((((2-(((5S, 8S,10aR)-3-acetyl-8-((1-(methyl-sulfonyl)piperidin-4-yl)carbamoyl)-6-oxodecahydro-pyrrolo[1,2-a][1,5]diazocin-5-yl)carbamoyl)benzo[b]thiophen-5-yl)difluoro-methyl)phos-phoryl)bis(oxy)) bis(methylene) bis(2,2-dimethylpro-panoate)]
- IC50 [1]: > 3000 nM
- IC50 [2]: 1000 to 3000 nM

SMILES: CC(=O)N1CC[C@H]2CC[C@@H](C(=O)Nc3ccc(S(C)(=O)=O)cc3)N2C(=O)[C@@H](NC(=O)c2cc3cc(C(F)(F)P(=O)(OCOC(=O)C(C)(C)C)OCOC(=O)C(C)(C)C)ccc3s2)C1 [Compound 314, ((((2-(((5S, 8S,10aR)-3-acetyl-8-((4-(methyl-sulfonyl)phenyl)carbamoyl)-6-oxodecahydro-pyrrolo[1,2-a][1,5]diazocin-5-yl)carbamoyl)benzo[b]thiophen-5-yl)difluoro-methyl)phos-phoryl)bis(oxy))bis (methylene) bis(2,2-dimethylpro-panoate)]
- IC50 [1]: 1000 to 3000 nM
- IC50 [2]: 100 to 1000 nM

SMILES: CC(=O)N1CC[C@H]2CC[C@@H](C(=O)N(C)c3ccccc3)N2C(=O)[C@@H](NC(=O)/C=C/c2ccc(C(F)(F)P(=O)(OCOC(=O)C(C)(C)C)OCOC(=O)C(C)(C)C)cc2)C1 [Compound 315, ((((4-((E)-3-(((5S,8S, 10aR)-3-acetyl-8-(methyl (phenyl)carbamoyl)-6-oxodecahydro-pyrrolo[1,2-a][1,5]diazocin-5-yl)amino)-3-oxoprop-1-en-1-yl)phenyl)difluoro-methyl)phosphoryl)bis(oxy))bis (methylene) bis(2,2-dimethylpro-panoate)]
- IC50 [1]: > 3000 nM
- IC50 [2]: 100 to 1000 nM

SMILES: CC(=O)N1CC[C@H]2CC[C@@H](C(=O)N(C)c3ccc(C#N)cc3)N2C(=O)[C@@H](NC(=O)c2cc3cc(C(F)(F)P(=O)(OCOC(=O)C(C)(C)C)OCOC(=O)C(C)(C)C)ccc3s2)C1 [Compound 316, ((((2-(((5S,8S, 10aR)-3-acetyl-8-((4-cyanophenyl) (methyl)carbamoyl)-6-oxodecahydro-pyrrolo[1,2-a][1,5]diazocin-5-yl)carbamoyl)benzo[b]thiophen-5-yl)difluoro-methyl)phos-phoryl)bis(oxy)) bis(methylene) bis(2,2-dimethylpro-panoate)]
- IC50 [1]: > 3000 nM
- IC50 [2]: 1000 to 3000 nM

SMILES: CCOP(=O)(OCC)C(F)(F)c1ccc2sc(C(=O)N[C@H]3CN(C(C)=O)CC[C@H]4CC[C@@H](C(=O)N(C)c5ccccc5)N4C3=O)cc2c1 [Compound 317, diethyl ((2-(((5S,8S, 10aR)-3-acetyl-8-(methyl (phenyl)carbamoyl)-6-oxodecahydro-pyrrolo[1,2-a][1,5]diazocin-5-yl)carbamoyl)benzo[b]thiophen-5-yl)difluoro-methyl)phos-phonate]
- IC50 [1]: > 3000 nM
- IC50 [2]: > 3000 nM

SMILES: CC(=O)N1CC[C@H]2CC[C@@H](C(=O)N(C)c3ccccc3)N2C(=O)[C@@H](NC(=O)c2cc3cc(C(F)(F)P(=O)(OCOC(=O)OC(C)C)OCOC(=O)OC(C)C)ccc3s2)C1 [Compound 318, ((((2-(((5S,8S, 10aR)-3-acetyl-8-(methyl (phenyl)carbamoyl)-6-oxodecahydro-pyrrolo[1,2-a][1,5]diazocin-5-yl)carbamoyl)benzo[b]thiophen-5-yl)difluoro-methyl)phos-phoryl)bis(oxy)) bis(methylene) diisopropyl bis(carbonate)]
- IC50 [1]: 100 to 1000 nM
- IC50 [2]: 100 to 1000 nM

SMILES: CC(=O)N1CC[C@H]2CC[C@@H](C(=O)N(C)c3ccc(C(C)(C)C)cc3)N2C(=O)[C@@H](NC(=O)c2cc3cc(C(F)(F)P(=O)(OCOC(=O)C(C)(C)C)OCOC(=O)C(C)(C)C)ccc3s2)C1 [Compound 319, ((((2-(((5S,8S, 10aR)-3-acetyl-8-((4-(tert-butyl)phenyl) (methyl)carbamoyl)-6-oxodecahydro-pyrrolo[1,2-a][1,5]diazocin-5-yl)carbamoyl)benzo[b]thiophen-5-yl)difluoro-methyl)phos-phoryl)bis(oxy)) bis(methylene) bis(2,2-dimethylpro-panoate)]
- IC50 [1]: 100 to 1000 nM
- IC50 [2]: ≤ 100 nM

SMILES: CC(=O)N1CC[C@H]2CC[C@@H](C(=O)N3CCC[C@H]3Cc3ccccc3)N2C(=O)[C@@H](NC(=O)c2cc3cc(C(F)(F)P(=O)(OCOC(=O)C(C)(C)C)OCOC(=O)C(C)(C)C)ccc3s2)C1 [Compound 320, ((((2-(((5S,8S, 10aR)-3-acetyl-8-((S)-2-benzyl-pyrrolidine-1-carbonyl)-6-oxodecahydro-pyrrolo[1,2-a][1,5]diazocin-5-yl)carbamoyl)benzo[b]thiophen-5-yl)difluoro-methyl)phos-phoryl)bis(oxy)) bis(methylene) bis(2,2-dimethylpro-panoate)]
- IC50 [1]: 100 to 1000 nM
- IC50 [2]: ≤ 100 nM

SMILES: CC(=O)N1CC[C@H]2CC[C@@H](C(=O)N(C)c3ccccc3)N2C(=O)[C@@H](NC(=O)c2ccc3ccc(C(F)(F)P(=O)(OCOC(=O)C(C)(C)C)OCOC(=O)C(C)(C)C)cc3c2)C1 [Compound 321, ((((7-(((5S,8S, 10aR)-3-acetyl-8-(methyl (phenyl)carbamoyl)-6-oxodecahydro-pyrrolo[1,2-a][1,5]diazocin-5-yl)carbamoyl)naphthalen-2-yl)difluoro-methyl)phos-phoryl)bis(oxy)) bis(methylene) bis(2,2-dimethylpro-panoate)]
- IC50 [1]: 100 to 1000 nM
- IC50 [2]: ≤ 100 nM

SMILES: CC(=O)N1CC[C@H]2CC[C@@H](C(=O)N(C)c3ccccc3)N2C(=O)[C@@H](NC(=O)c2ccc3cc(C(F)(F)P(=O)(OCOC(=O)C(C)(C)C)OCOC(=O)C(C)(C)C)ccc3c2)C1 [Compound 322, ((((6-(((5S,8S, 10aR)-3-acetyl-8-(methyl (phenyl)carbamoyl)-6-oxodecahydro-pyrrolo[1,2-a][1,5]diazocin-5-yl)carbamoyl)naphthalen-2-yl)difluoro-methyl)phos-phoryl)bis(oxy)) bis(methylene) bis(2,2-dimethylpro-panoate)]
- IC50 [1]: > 3000 nM
- IC50 [2]: > 3000 nM

SMILES: CC(=O)N1CC[C@H]2CC[C@@H](C(=O)Nc3ccc(-c4ccccc4)cc3)N2C(=O)[C@@H](NC(=O)/C=C/c2ccc(C(F)(F)P(=O)(OCOC(=O)C(C)(C)C)OCOC(=O)C(C)(C)C)cc2)C1 [Compound 324, ((((4-((E)-3-(((5S,8S, 10aR)-8-([1,1′-biphenyl]-4-ylcarbamoyl)-3-acetyl-6-oxodecahydro-pyrrolo[1,2-a][1,5]diazocin-5-yl)amino)-3-oxoprop-1-en-1-yl)phenyl)difluoro-methyl)phosphoryl)bis(oxy))bis (methylene) bis(2,2-dimethylpro-panoate)]
- IC50 [1]: > 3000 nM
- IC50 [2]: > 3000 nM

SMILES: CC(=O)N1CC[C@H]2CC[C@@H](C(=O)Nc3ccc(-c4ccccc4)cc3)N2C(=O)[C@@H](NC(=O)/C=C/c2ccc(C(F)(F)P(=O)(OCCSC(=O)CC(C)C)OCCSC(=O)CC(C)C)cc2)C1 [Compound 325, S,S′-(((((4-((E)-3-(((5S,8S, 10aR)-8-([1,1′-biphenyl]-4-ylcarbamoyl)-3-acetyl-6-oxodecahydro-pyrrolo[1,2-a][1,5]diazocin-5-yl)amino)-3-oxoprop-1-en-1-yl)phenyl)difluoro-methyl)phosphoryl)bis(oxy))bis (ethane-2,1-diyl)) bis(3-methylbutane-thioate)]
- IC50 [1]: > 3000 nM
- IC50 [2]: > 3000 nM

SMILES: CC(=O)N1CC[C@H]2CC[C@@H](C(=O)N(C)c3ccccc3)N2C(=O)[C@@H](NC(=O)c2cc3cc(C(F)(F)P(=O)(N[C@H](C)C(=O)OC(C)C)Oc4ccccc4)ccc3s2)C1 (stereo partly drawn) [Compound 326, isopropyl (((2-(((5S,8S, 10aR)-3-acetyl-8-(methyl (phenyl)carbamoyl)-6-oxodecahydro-pyrrolo[1,2-a][1,5]diazocin-5-yl)carbamoyl)benzo[b]thiophen-5-yl)difluoro-methyl) (phenoxy)phosphoryl)-D-alaninate]
- IC50 [1]: > 3000 nM
- IC50 [2]: > 3000 nM

SMILES: CC(=O)N1CC[C@H]2CC[C@@H](C(=O)N(C)c3ccc(OCCN(C)C)cc3)N2C(=O)[C@@H](NC(=O)c2cc3cc(C(F)(F)P(=O)(OCOC(=O)C(C)(C)C)OCOC(=O)C(C)(C)C)ccc3s2)C1 [Compound 327, ((((2-(((5S,8S, 10aR)-3-acetyl-8-((4-(2-(dimethyl-amino)ethoxy)phenyl) (methyl)carbamoyl)-6-oxodecahydro-pyrrolo[1,2-a][1,5]diazocin-5-yl)carbamoyl)benzo[b]thiophen-5-yl)difluoro-methyl)phos-phoryl)bis(oxy)) bis(methylene) bis(2,2-dimethylpro-panoate)]
- IC50 [1]: > 3000 nM
- IC50 [2]: > 3000 nM

SMILES: CNC(=O)[C@@H]1CC[C@@H]2CCN(C(=O)c3n[nH]c4ccc(C)cc34)C[C@H](NC(=O)c3ccc4ccc(C(F)(F)P(=O)(OCOC(=O)OC(C)C)OCOC(=O)OC(C)C)cc4c3)C(=O)N21 [Compound 328, (((difluoro(7-(((5S,8S,10aR)-3-(5-methyl-1H-indazole-3-carbonyl)-8-(methylcarbamoyl)-6-oxodecahydro-pyrrolo[1,2-a][1,5]diazocin-5-yl)carbamoyl)naphthalen-2-yl)methyl)phosphoryl)bis(oxy))bis(methylene) diisopropylbis(carbonate)]
- IC50 [1]: > 3000 nM
- IC50 [2]: 100 to 1000 nM
